The text below walks through data of patent publication US9994617B2, “Modulation of structured polypeptide specificity” (BICYCLE THERAPEUTICS LIMITED, priority 2011, dated 2018).

Numbered stars: 1 amine (or outer) side, 2 acyl side, 3 side chain; on linkers, the order of the positions; unused ones are H or OH. Bridge positions count the residues as written; N and C are the ends. Square brackets hold non-standard residues; d marks the D form. Peptide text beside a SMILES is read from it. NMeW = CN[C@@H](Cc1c[nH]c2ccccc12)C(=O)O; TBMB = c1c(C[*:1])cc(C[*:3])cc1C[*:2]; NMeC = CN[C@@H](CS)C(=O)O; NMeS = CN[C@@H](CO)C(=O)O

One test addresses Human thrombin (Homo sapiens, UniProt P00734). The test is described as follows: Inhibition of paralogous protease thrombin. In kind it is biochemical.
Conditions: not given
The protocol:
The target specificity of the isolated bicyclic peptide inhibitors was assessed by determining the inhibition of trypsin-like human serine proteases of the class S1A which comprises 79 members (Yousef, et al, Biochem Biophys Res Commun 2003, 305 (1), 28-36). The panel of proteases included hfXIa which shares the highest sequence identity with hPK (69%) as well as the structurally less related but vital human serine proteases thrombin (36%), plasmin (34% sequence identity with hPK) and factor XIIa (35%).
On to `CC(C)[C@@H]1NC(=O)[C@H](CCCNC(=N)N)NC(=O)[C@@H]2CSCc3cc(cc(c3)CSC[C@@H](C(=O)N[C@@H](C)C(N)=O)NC(=O)[C@H](C)NC1=O)CSC[C@H](NC(=O)[C@H](C)N)C(=O)N[C@@H](Cc1ccccc1)C(=O)N[C@@H](CCCCN)C(=O)N[C@@H](Cc1c[nH]cn1)C(=O)N2` [Peptide 3B8] (H-ACFKHCRVACA-NH2; linker 2-6-10 via TBMB), for which the IC50 is above 10 µM.
`CC(C)[C@@H]1NC(=O)[C@H](CCCNC(=N)N)NC(=O)[C@@H]2CSCc3cc(cc(c3)CSC[C@@H](C(=O)N[C@@H](C)C(N)=O)NC(=O)[C@H](CC(N)=O)NC1=O)CSC[C@H](NC(=O)[C@H](C)N)C(=O)N[C@@H](Cc1ccccc1)C(=O)N[C@@H](CCCCN)C(=O)N[C@@H](CCC(N)=O)C(=O)N2` [Peptide 06-94] (H-ACFKQCRVNCA-NH2; linker 2-6-10 via TBMB) displayed a concentration for half-maximal inhibition (IC50) above 10 µM.

A further test has as its target human plasma kallikrein (hPK) (Homo sapiens, UniProt P03952). Kind of test: Enzyme inhibition assay, human plasma kallikrein.
Conditions: not given
The compound `CC(=O)N[C@H]1CSCc2cc3cc(c2)CSC[C@H](NC(=O)[C@H](CCCNC(=N)N)NC(=O)[C@H](Cc2c[nH]c4ccccc24)NC(=O)[C@H](C)NC(=O)[C@H](CO)NC(=O)[C@@H]2CCCN2C1=O)C(=O)N[C@@H](CC(C)C)C(=O)N[C@@H](Cc1c[nH]cn1)C(=O)N[C@@H](CCC(N)=O)C(=O)N[C@@H](CC(=O)O)C(=O)N[C@@H](CC(C)C)C(=O)N[C@H](C(N)=O)CSC3` [Ac-(06-34-18) Scram1] (Ac-CPSAWRCLHQDLC-NH2; linker 1-7-13 via TBMB) gave a Ki of 1090 nM.
`CC(=O)N[C@H]1CSCc2cc3cc(c2)CSC[C@H](NC(=O)[C@H](C)NC(=O)[C@@H]2CCCN2C(=O)[C@H](Cc2c[nH]c4ccccc24)NC(=O)[C@H](CO)NC1=O)C(=O)N[C@@H](CC(C)C)C(=O)N[C@@H](Cc1c[nH]cn1)C(=O)N[C@@H](CCC(N)=O)C(=O)N[C@@H](CC(=O)O)C(=O)N[C@@H](CC(C)C)C(=O)N[C@H](C(N)=O)CSC3` [Ac-(06-34-18) Δ Arg5] (Ac-CSWPACLHQDLC-NH2; linker 1-6-12 via TBMB) showed a Ki above 100000 nM.
Still for that read-out and setting: the same measure for `CC(C)[C@@H]1NC(=O)[C@H](CCCNC(=N)N)NC(=O)[C@@H]2CSCc3cc(cc(c3)CSC[C@@H](C(=O)N[C@@H](C)C(N)=O)NC(=O)[C@H](C)NC1=O)CSC[C@H](NC(=O)[C@H](C)N)C(=O)N[C@@H](Cc1ccccc1)C(=O)N[C@@H](CCCCN)C(=O)N[C@@H](Cc1c[nH]cn1)C(=O)N2` [Peptide 3B8] (H-ACFKHCRVACA-NH2; linker 2-6-10 via TBMB): 0.95 nM; for `CC(C)C[C@@H]1NC(=O)[C@H](CCC(=O)O)NC(=O)[C@H](CCCNC(=N)N)NC(=O)[C@H]([C@@H](C)O)NC(=O)[C@H](CC(C)C)NC(=O)[C@@H]2CSCc3cc(cc(c3)CSC[C@@H](C(=O)N[C@@H](C)C(N)=O)NC1=O)CSC[C@H](NC(=O)[C@H](C)N)C(=O)N[C@@H](C)C(=O)N[C@@H](Cc1c[nH]c3ccccc13)C(=O)N1CCC[C@H]1C(=O)N[C@@H](C)C(=O)N[C@@H](CCCCN)C(=O)N2` [Peptide 1B1] (H-ACAWPAKCLTRELCA-NH2; linker 2-8-14 via TBMB): 8.1 nM; for `CC(=O)N[C@H]1CSCc2cc3cc(c2)CSC[C@H](NC(=O)[C@H](CCCNC(N)=O)NC(=O)[C@H](C)NC(=O)[C@@H]2CCCN2C(=O)[C@H](Cc2c[nH]c4ccccc24)NC(=O)[C@H](CO)NC1=O)C(=O)N[C@@H](CC(C)C)C(=O)N[C@@H](Cc1c[nH]cn1)C(=O)N[C@@H](CCC(N)=O)C(=O)N[C@@H](CC(=O)O)C(=O)N[C@@H](CC(C)C)C(=O)N[C@H](C(N)=O)CSC3` [Ac-(06-34-18) CitS]: 7860 nM.
In turn, `C[C@H](N)C(=O)N[C@H]1CSCc2cc3cc(c2)CSC[C@H](NC(=O)[C@H](CC(N)=O)NC(=O)[C@H](CC(N)=O)NC(=O)[C@H](Cc2ccc(O)cc2)NC(=O)CNC(=O)CNC1=O)C(=O)N[C@@H](CCCNC(=N)N)C(=O)N[C@@H](C)C(=O)N[C@@H](Cc1ccccc1)C(=O)N[C@@H](CO)C(=O)N[C@@H](Cc1ccc(O)cc1)C(=O)N[C@H](C(=O)N[C@@H](C)C(N)=O)CSC3` [Peptide 1F7] (H-ACGGYNNCRAFSYCA-NH2; linker 2-8-14 via TBMB) displayed a Ki of 2.2 nM.
As to `CC(=O)N[C@H]1CSCc2cc3cc(c2)CSC[C@H](NC(=O)[C@H](CCCNC(=N)N)NC(=O)[C@@H]2CCCN2C(=O)[C@H](CO)NC(=O)[C@H](C)NC(=O)[C@H](Cc2c[nH]c4ccccc24)NC1=O)C(=O)N[C@@H](CC(C)C)C(=O)N[C@@H](Cc1c[nH]cn1)C(=O)N[C@@H](CCC(N)=O)C(=O)N[C@@H](CC(=O)O)C(=O)N[C@@H](CC(C)C)C(=O)N[C@H](C(N)=O)CSC3` [Ac-(06-34-18) Scram2] (Ac-CWASPRCLHQDLC-NH2; linker 1-7-13 via TBMB), the affinity, expressed as Ki, was 11400 nM.
Compound `CC(C)[C@@H]1NC(=O)[C@H](CCCNC(=N)N)NC(=O)[C@@H]2CSCc3cc(cc(c3)CSC[C@@H](C(=O)N[C@@H](C)C(N)=O)NC(=O)[C@H](CC(N)=O)NC1=O)CSC[C@H](NC(=O)[C@H](C)N)C(=O)N[C@@H](Cc1ccccc1)C(=O)N[C@@H](CCCCN)C(=O)N[C@@H](CCC(N)=O)C(=O)N2` [Peptide 06-94] (H-ACFKQCRVNCA-NH2; linker 2-6-10 via TBMB) had a Ki of 0.7 nM.
Take `CC(=O)N[C@H]1CSCc2cc3cc(c2)CSC[C@H](NC(=O)[C@H](CCCNC(=N)N)NC(=O)[C@H](C)NC(=O)[C@@H]2CCCN2C(=O)[C@H](Cc2c[nH]c4ccccc24)N(C)C(=O)[C@H](CO)NC1=O)C(=O)N[C@@H](CC(C)C)C(=O)N[C@@H](Cc1c[nH]cn1)C(=O)N[C@@H](CCC(N)=O)C(=O)N[C@@H](CC(=O)O)C(=O)N[C@@H](CC(C)C)C(=O)N[C@H](C(N)=O)CSC3` [Ac-(06-34-18) NMeTrp2] (Ac-CS[NMeW]PARCLHQDLC-NH2; linker 1-7-13 via TBMB): the inhibitory constant (Ki) worked out at 228 nM.
Still for that read-out and setting: then `CC(=O)N[C@H]1CSCc2cc3cc(c2)CSC[C@H](NC(=O)[C@H](CCCNC(=N)N)NC(=O)[C@H](C)NC(=O)[C@H]2CCCN2C(=O)[C@H](Cc2c[nH]c4ccccc24)NC(=O)[C@H](CO)NC1=O)C(=O)N[C@@H](CC(C)C)C(=O)N[C@@H](Cc1c[nH]cn1)C(=O)N[C@@H](CCC(N)=O)C(=O)N[C@@H](CC(=O)O)C(=O)N[C@@H](CC(C)C)C(=O)N[C@H](C(N)=O)CSC3` [Ac-(06-34-18) D-Pro3], with 680 nM; and `CC(C)[C@@H]1NC(=O)[C@H](CCCNC(=N)N)NC(=O)[C@@H]2CSCc3cc(cc(c3)CSC[C@@H](C(=O)N[C@@H](C)C(N)=O)NC(=O)[C@H](CC(N)=O)NC1=O)CSC[C@H](NC(=O)[C@H](C)N)C(=O)N[C@@H](Cc1ccccc1)C(=O)N[C@@H](CCCCN)C(=O)N[C@@H](CC(N)=O)C(=O)N2` [Peptide 3B2] (H-ACFKNCRVNCA-NH2; linker 2-6-10 via TBMB), with 9 nM.
In the case of `CC(=O)N[C@H]1CSCc2cc3cc(c2)CSC[C@@H](C(=O)N[C@@H](CC(C)C)C(=O)N[C@@H](Cc2c[nH]cn2)C(=O)N[C@@H](CCC(N)=O)C(=O)N[C@@H](CC(=O)O)C(=O)N[C@@H](CC(C)C)C(=O)N[C@H](C(N)=O)CSC3)N(C)C(=O)[C@H](CCCNC(=N)N)NC(=O)[C@H](C)NC(=O)[C@@H]2CCCN2C(=O)[C@H](Cc2c[nH]c3ccccc23)NC(=O)[C@H](CO)NC1=O` [Ac-(06-34-18) NMeCys2] (Ac-CSWPAR[NMeC]LHQDLC-NH2; linker 1-7-13 via TBMB), the Ki was found to be 418 nM.
On the same count and under the same terms, the same measure for `CC(=O)N[C@H]1CSCc2cc3cc(c2)CSC[C@H](NC(=O)[C@H](CCNC(=N)N)NC(=O)[C@H](C)NC(=O)[C@@H]2CCCN2C(=O)[C@H](Cc2c[nH]c4ccccc24)NC(=O)[C@H](CO)NC1=O)C(=O)N[C@@H](CC(C)C)C(=O)N[C@@H](Cc1c[nH]cn1)C(=O)N[C@@H](CCC(N)=O)C(=O)N[C@@H](CC(=O)O)C(=O)N[C@@H](CC(C)C)C(=O)N[C@H](C(N)=O)CSC3` [Ac-(06-34-18) Agb5]: 83 nM; for `CC(=O)N[C@H]1CSCc2cc3cc(c2)CSC[C@H](NC(=O)[C@H](CNC(=N)N)NC(=O)[C@H](C)NC(=O)[C@@H]2CCCN2C(=O)[C@H](Cc2c[nH]c4ccccc24)NC(=O)[C@H](CO)NC1=O)C(=O)N[C@@H](CC(C)C)C(=O)N[C@@H](Cc1c[nH]cn1)C(=O)N[C@@H](CCC(N)=O)C(=O)N[C@@H](CC(=O)O)C(=O)N[C@@H](CC(C)C)C(=O)N[C@H](C(N)=O)CSC3` [Ac-(06-34-18) Agp5]: 1770 nM; for `CC(=O)N[C@H]1CSCc2cc3cc(c2)CSC[C@H](NC(=O)[C@H](CCCNC(=N)N)NC(=O)[C@@H](C)NC(=O)[C@@H]2CCCN2C(=O)[C@H](Cc2c[nH]c4ccccc24)NC(=O)[C@H](CO)NC1=O)C(=O)N[C@@H](CC(C)C)C(=O)N[C@@H](Cc1c[nH]cn1)C(=O)N[C@@H](CCC(N)=O)C(=O)N[C@@H](CC(=O)O)C(=O)N[C@@H](CC(C)C)C(=O)N[C@H](C(N)=O)CSC3` [Ac-(06-34-18) D-Ala4]: 1200 nM.
`CC(=O)N[C@H]1CSCc2cc3cc(c2)CSC[C@H](NC(=O)[C@H](CCCNC(=N)N)NC(=O)[C@H](C)NC(=O)[C@@H]2CCCN2C(=O)[C@H](Cc2c[nH]c4ccccc24)NC(=O)[C@H](CO)N(C)C1=O)C(=O)N[C@@H](CC(C)C)C(=O)N[C@@H](Cc1c[nH]cn1)C(=O)N[C@@H](CCC(N)=O)C(=O)N[C@@H](CC(=O)O)C(=O)N[C@@H](CC(C)C)C(=O)N[C@H](C(N)=O)CSC3` [Ac-(06-34-18) NMeSer1] (Ac-C[NMeS]WPARCLHQDLC-NH2; linker 1-7-13 via TBMB) returned a Ki of 0.5 nM.
Same read-out and setting: then `CC(=O)N[C@H]1CSCc2cc3cc(c2)CSC[C@H](NC(=O)[C@H](CCCNC(=N)N)NC(=O)[C@H](CO)NC(=O)[C@H](Cc2c[nH]c4ccccc24)NC(=O)[C@@H]2CCCN2C(=O)[C@H](C)NC1=O)C(=O)N[C@@H](CC(C)C)C(=O)N[C@@H](Cc1c[nH]cn1)C(=O)N[C@@H](CCC(N)=O)C(=O)N[C@@H](CC(=O)O)C(=O)N[C@@H](CC(C)C)C(=O)N[C@H](C(N)=O)CSC3` [Ac-(06-34-18) Scram3] (Ac-CAPWSRCLHQDLC-NH2; linker 1-7-13 via TBMB), with 1890 nM.

The test is the same for the next values; noted with them: versus Ac-06-34-18(TMB)-NH2.
As to `CC(=O)N[C@H]1CSCc2cc3cc(c2)CSC[C@H](NC(=O)[C@H](CCCNC(=N)N)NC(=O)[C@@H](C)NC(=O)[C@@H]2CCCN2C(=O)[C@H](Cc2c[nH]c4ccccc24)NC(=O)[C@H](CO)NC1=O)C(=O)N[C@@H](CC(C)C)C(=O)N[C@@H](Cc1c[nH]cn1)C(=O)N[C@@H](CCC(N)=O)C(=O)N[C@@H](CC(=O)O)C(=O)N[C@@H](CC(C)C)C(=O)N[C@H](C(N)=O)CSC3` [Ac-(06-34-18) D-Ala4], the “fold reduction in affinity to kallikrein compared to wildtype peptide” value came out at 7000 fold.

The IC50 is the point on the concentration scale where inhibition reaches its midpoint. Read a low IC50 as higher potency. Broadly, the Ki is the dissociation constant of the complex between target and ligand, obtained from inhibition or displacement.
